The values that follow come from patent US11191754B2, “Inhibitors of nucleotidyl transferases and uses in herpes and hepatitis viral infections therefor” (Saint Louis University, priority 2015, dated 2021).

For test [1], the system named is HBV. Nature of the test: Chou-Talalay combination analysis with Lamivudine against HBV replication. Type of test: cell-based, hepatitis B virus. The settings on record: together with Lamivudine; CI <1.0 indicates synergy. An excerpt: Current nucleos(t)ide analog therapy for HBV has converted hepatitis type B from an implacably progressing illness to a controllable disease. However, patients are only very rarely cured, in part due to the incomplete inhibition of HBV replication. The inventors hypothesized that the novel RNaseH inhibitors would work synergistically with the existing nucleos(t)ide analogs because the two classes of drugs target physically distinct active sites on the viral polymerase protein. […] RNAseH inhibitors from two different chemical classes were employed, compound #1 [2-hydroxyisoquinoline-1,3(2H,4H)-dione], an HID, and #46 (β-thujaplicinol), an α-hydroxytropolone, were tested. Chou-Talaly analysis yields a combination index (CI). CI values <1.0 indicate synergy, CIs of approximately 1.0 indicate additive interactions, and CI values >1.0 indicate antagonism. CI values are calculated at various efficacy levels (EC50, EC75, EC90, and EC95), and a weighted CI value favoring higher efficacy levels is also generated. FIGS. 4A & 4B show the results of four experiments employing compound #1 and three with compound #46. […] Therefore, RNAseH inhibitors act strongly synergistically with an approved nucleos(t)ide analog drug against HBV.

Another test has as its system HBV RNAseH. Kind of test: Biochemical RNAseH assay with patient-derived variant HBV RNAseH enzymes. Also noted: species or system hepatitis B virus. The settings on record: four genotype D patient-derived enzymes; compound at its IC50 (FIGS. 5A & 5B). The method, then:
RNaseH activity was measured using an oligonucleotide-directed RNA cleavage assay as previously described in Hu, et al., Tavis, et al., and Cai, et al. (2013; 2013; and 2014, respectfully). Briefly, 6 μL protein extract was mixed on ice with an internally ^32P-labeled 264 nt RNA derived from the Duck Hepatitis B Virus genome (DRF+ RNA) plus 3 μg oligonucleotide D2507- or its inverse-complement oligonucleotide D2526+ as a negative control. This mixture was incubated with test compounds in 50 mM Tris pH 8.0, 190 mM NaCl, 5 mM MgCl2, 3.5 mM DTT, 0.05% NP40, 6% glycerol, and 1% DMSO at 42° C. for 90 minutes. Cleavage products were resolved by denaturing polyacrylamide gel electrophoresis, detected by autoradiography, and quantified using ImageJ. Non-specific background values were determined from the incorrect oligonucleotide negative control lane and subtracted from all experimental values. IC50 values were then calculated with GraphPad Prism using three-parameter log(inhibitor) vs. response non-linear curve fitting with the curve minimum set to zero to reflect background subtraction.
HBV has 8 genotypes differing in sequence by 8%. Genetic diversity in the RNAseH domain is about 6%, which is easily high enough to modulate viral sensitivity to RNAseH inhibitors. […]

The test system of test [2] is HBV. The settings on record: HBV patients; cited from earlier work.

With `O=C1Cc2ccccc2C(=O)N1O` [#1, 2-hydroxyisoquinoline-1,3(2H,4H)-dione], the “weighted combination index (CI)” value in the test on HBV [1] is 0.70±0.1. The “inhibition of HBV RNAseH” value in the test on HBV RNAseH is reported as “about 50%”.

With Interferon α, the sustained clinical improvement with HBV [2] is reported as 20-30 % of patients.

Regarding `CC(C)c1ccc(O)c(=O)c(O)c1` [#46, β-thujaplicinol], the “weighted combination index (CI)” value in the test with HBV [1] worked out at 0.44±0.3. In addition, the “inhibition of HBV RNAseH” value in the test with HBV RNAseH is listed as “about 50%”.
